Assay results from patent US11814367B2, “Inhibitors of glycogen synthase 1 (GYS1) and methods of use thereof” (Maze Therapeutics, Inc., priority 2021, dated 2023).

Assays:
[1] = test system: hGYS1 enzyme / glycogen synthesis in HeLa cells; assay: GYS1 cell based assay (glycogen synthesis, Glucose-glo); design: species or system human; conditions: 24 h incubation, 20 mM glucose, geometric mean of at least 2 runs
Procedure, shortened: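 HeLa cells starved 24 h in medium containing only 1× Glutamax were plated onto compound in medium with 20 mM glucose (1% DMSO final) for 24 h, 37 °C, 5% CO2. Acid lysates were Tris-quenched, glucoamylase-digested (pH 5.3, 1 h, 37 °C) and read by Glucose-glo luminescence. IC50 came from Hill fits, as geometric mean of ≥2 runs.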

[2] = biological target: hGYS1 enzyme (recombinant hGYS1/GN1 protein) (Homo sapiens (Human), UniProt P13807); assay: GYS1 coupled enzyme assay (PK/LDH); assay type: biochemical; conditions: hGYS1/GN1 50 nM, UDP-Glucose 0.8 mM, G6P 1 mM; geometric mean of at least 2 runs
Chain of hGYS1 enzyme (recombinant hGYS1/GN1 protein) (P13807 whole entry): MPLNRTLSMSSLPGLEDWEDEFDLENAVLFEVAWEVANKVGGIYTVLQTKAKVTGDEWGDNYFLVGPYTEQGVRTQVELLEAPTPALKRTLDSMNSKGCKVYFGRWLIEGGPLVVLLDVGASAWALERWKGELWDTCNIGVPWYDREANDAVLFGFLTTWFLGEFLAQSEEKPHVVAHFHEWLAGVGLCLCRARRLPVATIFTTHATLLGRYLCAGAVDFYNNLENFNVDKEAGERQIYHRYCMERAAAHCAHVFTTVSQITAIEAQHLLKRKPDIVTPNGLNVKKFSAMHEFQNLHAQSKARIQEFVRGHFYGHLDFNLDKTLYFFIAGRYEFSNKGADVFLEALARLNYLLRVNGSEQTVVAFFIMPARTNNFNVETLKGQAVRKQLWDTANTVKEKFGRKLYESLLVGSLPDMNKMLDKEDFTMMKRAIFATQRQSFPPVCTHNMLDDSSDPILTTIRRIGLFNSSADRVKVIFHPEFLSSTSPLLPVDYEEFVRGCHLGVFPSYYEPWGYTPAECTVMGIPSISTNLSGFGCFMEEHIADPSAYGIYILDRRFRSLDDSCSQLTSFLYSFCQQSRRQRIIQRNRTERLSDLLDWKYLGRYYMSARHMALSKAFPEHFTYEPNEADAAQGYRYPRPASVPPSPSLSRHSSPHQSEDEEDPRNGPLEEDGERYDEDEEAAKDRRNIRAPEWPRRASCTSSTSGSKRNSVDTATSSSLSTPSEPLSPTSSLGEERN
Chain of hGYS1 enzyme (recombinant hGYS1/GN1 protein) (P46976 whole entry partner): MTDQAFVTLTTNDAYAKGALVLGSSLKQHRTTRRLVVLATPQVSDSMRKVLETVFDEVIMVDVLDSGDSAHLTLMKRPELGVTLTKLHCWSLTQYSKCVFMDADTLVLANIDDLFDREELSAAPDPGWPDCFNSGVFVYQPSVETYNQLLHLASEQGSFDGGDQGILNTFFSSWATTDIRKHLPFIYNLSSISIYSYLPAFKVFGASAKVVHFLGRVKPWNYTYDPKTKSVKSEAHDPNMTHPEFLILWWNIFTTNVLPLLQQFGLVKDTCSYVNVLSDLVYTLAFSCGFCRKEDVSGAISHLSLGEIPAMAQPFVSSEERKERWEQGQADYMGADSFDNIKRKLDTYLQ

IC50 ([1]; Homo sapiens, HeLa, 24 h)	IC50 [2]	IC50 [1]	Structure (SMILES)
60 nM	8 nM	–	CCn1ccnc(CC(=O)N2C[C@H](F)C[C@H]2C(=O)N[C@@H](c2ccccc2)c2ccc(C3CC(F)(F)C3)c(F)n2)c1=O [Compound 531, (2S,4R)-N-[(S)-[5-(3,3-difluorocyclobutyl)-6-fluoropyridin-2-yl](phenyl)methyl]-1-[2-(4-ethyl-3-oxo-3,4-dihydropyrazin-2-yl)acetyl]-4-fluoropyrrolidine-2-carboxamide]
5790 nM	408 nM	–	Cc1cc(C(NC(=O)[C@@H]2C[C@@H](F)CN2C(=O)Cc2cnn[nH]2)c2cccnc2N)ccc1C(C)C (single isomer, unassigned) [Compound 624, (2S,4R)-N-[(R) or (S)-(2-aminopyridin-3-yl)[3-methyl-4-(propan-2-yl)phenyl]methyl]-4-fluoro-1-[2-(1H-1,2,3-triazol-5-yl)acetyl]pyrrolidine-2-carboxamide]
660 nM	97 nM	–	O=C(N[C@@H](c1ccccc1)c1ccc(C2CC(F)(F)C2)c(F)c1)[C@@H]1C[C@@H](F)CN1C(=O)Cc1nc(C(F)(F)F)co1 [Compound 555, (2S,4R)-N-[(S)-[4-(3,3-difluorocyclobutyl)-3-fluorophenyl](phenyl)methyl]-4-fluoro-1-{2-[4-(trifluoromethyl)-1,3-oxazol-2-yl]acetyl}pyrrolidine-2-carboxamide]
320 nM	21 nM	–	CCn1ccnc(CC(=O)N2C[C@H](F)C[C@H]2C(=O)N[C@@H](c2ccccc2)c2ccc(C3CC3)c(F)n2)c1=O [Compound 753, (2S,4R)-N-[(S)-(5-cyclopropyl-6-fluoropyridin-2-yl)(phenyl)methyl]-1-[2-(4-ethyl-3-oxo-3,4-dihydropyrazin-2-yl)acetyl]-4-fluoropyrrolidine-2-carboxamide]
> 30000 nM	805 nM	–	COc1ncccc1C(NC(=O)[C@@H]1C[C@@H](F)CN1C(=O)Cc1cnn[nH]1)c1ccc(C2(C)CC2)c(F)c1 (single isomer, unassigned) [Compound 626, (2S,4R)-4-fluoro-N-[(R) or (S)-[3-fluoro-4-(1-methylcyclopropyl)phenyl](2-methoxypyridin-3-yl)methyl]-1-[2-(1H-1,2,3-triazol-5-yl)acetyl]pyrrolidine-2-carboxamide]
550 nM	37 nM	–	CCOc1ncc(CC(=O)N2C[C@H](F)C[C@H]2C(=O)N[C@@H](c2ccccc2)c2ccc(C3CC3)c(F)n2)cc1C [Compound 737, (2S,4R)-N-[(S)-(5-cyclopropyl-6-fluoropyridin-2-yl)(phenyl)methyl]-1-[2-(6-ethoxy-5-methylpyridin-3-yl)acetyl]-4-fluoropyrrolidine-2-carboxamide]
> 9010 nM	1150 nM	–	CC(C)c1ccc([C@H](NC(=O)[C@@H]2C[C@@H](F)CN2C(=O)Cc2cnn[nH]2)c2ccccc2)nc1F (relative stereo) [Compound 776, (2S,4R)-4-fluoro-N-[(R*)-[6-fluoro-5-(propan-2-yl)pyridin-2-yl](phenyl)methyl]-1-[2-(1H-1,2,3-triazol-5-yl)acetyl] pyrrolidine-2-carboxamide]
> 30000 nM	3820 nM	–	CC(C)c1ccc([C@H](NC(=O)[C@@H]2C[C@@H](F)CN2C(=O)Cc2cnn[nH]2)c2cccc(-c3ccn[nH]3)c2)nc1F [Compound 687, (2S,4R)-1-(2-(1H-1,2,3-triazol-5-yl)acetyl)-N—((R)-(3-(1H-pyrazol-5-yl)phenyl)(6-fluoro-5-isopropylpyridin-2-yl)methyl)-4-fluoropyrrolidine-2-carboxamide]
100 nM	4 nM	–	CCn1cc(C)cc(CC(=O)N2C[C@H](F)C[C@H]2C(=O)N[C@@H](c2ccccc2)c2ccc(C(C)C)c(F)n2)c1=O [Compound 799, (2S,4R)-1-[2-(1-ethyl-5-methyl-2-oxo-1,2-dihydropyridin-3-yl)acetyl]-4-fluoro-N-[(S)-[6-fluoro-5-(propan-2-yl)pyridin-2-yl](phenyl)methyl] pyrrolidine-2-carboxamide]
1060 nM	102 nM	–	O=C(N[C@@H](c1ccccc1)c1ccc(C2CC2)c(F)n1)[C@@H]1C[C@@H](F)CN1C(=O)Cn1nnnc1C(F)(F)F [Compound 755, (2S,4R)-N-[(S)-(5-cyclopropyl-6-fluoropyridin-2-yl)(phenyl)methyl]-4-fluoro-1-{2-[5-(trifluoromethyl)-1H-1,2,3,4-tetrazol-1-yl]acetyl}pyrrolidine-2-carboxamide]
700 nM	15 nM	–	O=C(N[C@@H](c1ccccc1)c1ccc(C2CC2)c(F)n1)[C@@H]1C[C@@H](F)CN1C(=O)Cc1cccn2c(=O)[nH]nc12 [Compound 297, (2S,4R)-N-[(S)-(5-cyclopropyl-6-fluoropyridin-2-yl)(phenyl)methyl]-4-fluoro-1-(2-{3-oxo-2H,3H-[1,2,4]triazolo[4,3-a]pyridin-8-yl}acetyl)pyrrolidine-2-carboxamide]
400 nM	29 nM	–	Cn1cc(C(F)F)c(CC(=O)N2C[C@H](F)C[C@H]2C(=O)N[C@@H](c2ccccc2)c2ccc(C3CC3)c(F)n2)n1 [Compound 757, (2S,4R)-N-[(S)-(5-cyclopropyl-6-fluoropyridin-2-yl)(phenyl)methyl]-1-{2-[4-(difluoromethyl)-1-methyl-1H-pyrazol-3-yl]acetyl}-4-fluoropyrrolidine-2-carboxamide]
3700 nM	461 nM	–	CC(=O)N1C[C@@H]2C[C@@H]2[C@H]1C(=O)N[C@@H](c1ccccc1)c1ccc(C(C)C)cc1 [Compound 201, (1S,2S,5R)-3-acetyl-N-[(S)-phenyl[4-(propan-2-yl)phenyl]methyl]-3-azabicycl[3.1.0]hexane-2-carboxamide]
910 nM	12 nM	–	O=C(N[C@@H](c1ccccc1)c1ccc(C2CC(F)(F)C2)c(F)n1)[C@@H]1C[C@@H](F)CN1C(=O)Cc1c[nH]c(=O)cn1 [Compound 530, (2S,4R)-N-[(S)-[5-(3,3-difluorocyclobutyl)-6-fluoropyridin-2-yl](phenyl)methyl]-4-fluoro-l-[2-(5-oxo-4,5-dihydropyrazin-2-yl)acetyl]pyrrolidine-2-carboxamide]
510 nM	24 nM	–	O=C(N[C@@H](c1ccccc1)c1ccc(C2CC2)c(F)n1)[C@@H]1C[C@@H](F)CN1C(=O)Cn1nncc1C(F)(F)F [Compound 745, (2S,4R)-N-[(S)-(5-cyclopropyl-6-fluoropyridin-2-yl)(phenyl)methyl]-4-fluoro-1-{2-[5-(trifluoromethyl)-1H-1,2,3-triazol-1-yl]acetyl}pyrrolidine-2-carboxamide]
710 nM	16 nM	–	CCn1cccc(CC(=O)N2C[C@H](F)C[C@H]2C(=O)N[C@@H](c2ccccc2)c2ccc(C3CC3)c(F)n2)c1=O [Compound 741, (2S,4R)-N-[(S)-(5-cyclopropyl-6-fluoropyridin-2-yl)(phenyl)methyl]-1-[2-(1-ethyl-2-oxo-1,2-dihydropyridin-3-yl)acetyl]-4-fluoropyrrolidine-2-carboxamide]
290 nM	16 nM	–	CCn1cc(CC(=O)N2C[C@H](F)C[C@H]2C(=O)N[C@@H](c2ccccc2)c2ccc(C(C)C)c(F)n2)ncc1=O [Compound 797, (2S,4R)-1-[2-(4-ethyl-5-oxo-4,5-dihydropyrazin-2-yl)acetyl]-4-fluoro-N-[(S)-[6-fluoro-5-(propan-2-yl)pyridin-2-yl](phenyl)methyl] pyrrolidine-2-carboxamide]
> 17500 nM	1080 nM	–	CC(C)c1ccc([C@@H](NC(=O)[C@@H]2C[C@@H](F)CN2C(=O)Cc2[nH]nnc2N(C)C)c2ccccc2)cc1F [Compound 775, (2S,4R)-1-{2-[4-(dimethylamino)-1H-1,2,3-triazol-5-yl]acetyl}-4-fluoro-N-[(S)-[3-fluoro-4-(propan-2-yl)phenyl](phenyl)methyl] pyrrolidine-2-carboxamide]
340 nM	17 nM	–	CCn1cc(CC(=O)N2C[C@H](F)C[C@H]2C(=O)N[C@@H](c2ccccc2)c2ccc(C3CC3)c(F)n2)cc(C)c1=O [Compound 739, (2S,4R)-N-[(S)-(5-cyclopropyl-6-fluoropyridin-2-yl)(phenyl)methyl]-1-[2-(1-ethyl-5-methyl-6-oxo-1,6-dihydropyridin-3-yl)acetyl]-4-fluoropyrrolidine-2-carboxamide]
400 nM	9 nM	–	CC(C)c1ccc([C@@H](NC(=O)[C@@H]2C[C@@H](F)CN2C(=O)Cc2nn(C)c(=O)[nH]2)c2ccccc2)nc1F [Compound 397, (2S,4R)-4-fluoro-N-[(S)-[6-fluoro-5-(propan-2-yl)pyridin-2-yl](phenyl)methyl]-1-[2-(1-methyl-5-oxo-4,5-dihydro-1H-1,2,4-triazol-3-yl)acetyl] pyrrolidine-2-carboxamide]
–	1600 nM	> 30000 nM	CC(C)c1ccc(C(NC(=O)[C@@H]2C[C@@H](F)CN2C(=O)Cc2cnn[nH]2)c2ccc3cn[nH]c3c2)nc1F (single isomer, unassigned) [Compound 633, (2S,4R)-4-fluoro-N-[(R) or (S)-[6-fluoro-5-(propan-2-yl)pyridin-2-yl](1H-indazol-6-yl)methyl]-1-[2-(1H-1,2,3-triazol-5-yl)acetyl]pyrrolidine-2-carboxamide]
> 30000 nM	1680 nM	–	O=C(N[C@H](c1ccccc1)c1ccc(C2CC(F)(F)C2)c(F)c1)[C@@H]1C[C@@H](F)CN1C(=O)CNC(=O)N1CCC1 [Compound 545, (2S,4R)-1-((azetidine-1-carbonyl)glycyl)-N—((R)-(4-(3,3-difluorocyclobutyl)-3-fluorophenyl)(phenyl)methyl)-4-fluoropyrrolidine-2-carboxamide]
